We go through two compounds from the NIST ThermoML archive (doi:10.1021/acs.jced.8b00192).

Numbers after ± are expanded uncertainties.

A short description of data set [1]: Molar enthalpy of transition or fusion. Conditions: Crystal; DSC.
For data set [2] the following is noted: Crystal; DTA.

`CC(=O)c1ccc([N+](=O)[O-])cc1` [1-(4-nitrophenyl)ethanone]: the “Molar enthalpy of transition or fusion” value in data set [1] amounted to 5.72 ± 0.225 kcal/mol. Moreover, in data set [2], the Normal melting temperature is 81.00 ± 1.1 °C.
Turning to `CC(=O)c1cccc([N+](=O)[O-])c1` [1-(3-nitrophenyl)ethanone], the “Molar enthalpy of transition or fusion” value in data set [1] stood at 3.86 ± 0.21 kcal/mol. Also, the Normal melting temperature in data set [2] came out at 76.53 ± 1.1 °C.
